The assay concerns the target human tryptase. The experiment in a line: Inhibition of human tryptase (apparent dissociation constant Kiapp, chromogenic substrate tos-Gly-Pro-arg-pNA, heparin-stabilized). Type of assay: biochemical. As to conditions: apparent dissociation constant in the presence of substrate; human tryptase from lung tissue or recombinant; heparin 0.1-50 μg/ml; equilibrium conditions. From the text:
The documented pathophysiological effects of mast cell tryptase are caused directly by the enzymatic activity of the protease. Accordingly, they are reduced or blocked by inhibitors which inhibit the enzymatic activity of the tryptase. A suitable measure for the affinity of a reversible inhibitor to the target protease is the equilibrium dissociation constant Ki of the enzyme-inhibitor complex. This Ki value can be determined via the effect of the inhibitor on the tryptase-induced cleavage of a chromogenic peptide-p-nitroanilide substrate or a fluorogenic peptide-aminomethylcoumarin substrate.
The dissociation constants for the tryptase-inhibitor complexes are determined under equilibrium conditions in accordance with the general proposals of Bieth (Bieth J G, Pathophysiological Interpretation of kinetic constants of protease inhibitors, Bull. Europ. Physiopath. Resp. 16:183-195, 1980) and the methods of Sommerhoff et al. (Sommerhoff C P et al., A Kazal-type inhibitor of human mast cell tryptase: Isolation from the medical leech Hirudo medicinalis, characterization, and sequence analysis, Biol. Chem. Hoppe-Seyler 375: 685-694, 1994).
Human tryptase is isolated from lung tissue or prepared recombinantly; the specific activity of the protease, determined by titration, is usually greater than 85% of the theoretical value. […] After an equilibrium between the reaction partners has formed, the remaining enzyme activity after addition of the peptide-p-nitroanilide substrate tos-Gly-Pro-arg-pNA is determined and the cleavage of the latter is monitored at 405 nm for 3 min. Alternatively, the remaining enzymatic activity can also be determined using fluorogenic substrates. The apparent dissociation constants Kiapp (i.e. in the presence of substrate) are subsequently determined by adapting the enzyme rates to the general equation for reversible inhibitors (Morrison J F, Kinetics of the reversible inhibition of enzyme-catalyzed reactions by tight-binding inhibitors, Biochim. Biophys. Acta 185, 269-286, 1969) using non-linear regression: […]

Counter-ions that a name gives are not always drawn.

For the molecule `NCc1cccc(CNC(=O)OCCOCC#CCOCCOC(=O)NCc2cccc(CN)c2)c1` [Compound 1, 1,4-Bis-(3-aminomethylbenzylaminocarbonyl-1,2-dioxyethyl)-2-butyne dihydrochloride], the Ki stood at 6 nM.

For `NCc1cccc(CNC(=O)OCC#CCOC(=O)NCc2cccc(CN)c2)c1` [Compound 3, 1,4-Bis-(3-aminomethylbenzylaminocarbonyl-1-oxy)-2-butyne dihydrochloride], the Ki was 100 nM. For `NCc1ccc(CNC(=O)OCC#CC#CCOC(=O)NCc2ccc(CN)cc2)cc1` [Compound 2, 1,6-Bis-(4-aminomethylbenzylaminocarbonyl-1-oxy-2,4-hexadiynedihydrochloride], the Ki amounted to 450 nM.

The values above are taken from US6815557B2, “Tryptase inhibitors” (Altana Pharma AG, priority 1999, dated 2004).
